Assay results as given in US6469040B2, “Method of using cyclooxygenase-2 inhibitors in the treatment and prevention of neoplasia” (G.D. Searle & Co., priority 1997, dated 2002).

What was measured:
LNCaP = LNCaP human prostate cancer cell tumors in nude mice; assay type: in vivo; settings: 6 mg/kg/day in drinking water
Excerpt: (§1) Two human prostate cancer cell lines (PC-3 and LNCaP) were obtained (ATCC) to determine the efficacy of cyclooxygenase-2 inhibitors to inhibit tumor growth in a therapeutic model. In addition, the LNCaP cell line secretes prostate serum antigen (PSA) when grown in nude mice.
PSA level was reduced to approximately 50% as judged by western blotting.

PC-3 cells = experiment: PC-3 human prostate cancer cell tumors in nude mice; assay type: in vivo; settings: 20 mg/kg/day in water from day 28, after 45 days
Protocol: as §1
PC-3 cells (10^6 cells/0.2 ml of 30% matrigel) in RPMI 1640 medium was injected on the back of nude mice. […] After 45 days, PGE2 and TXB2 were measured.

[1] = system: Lewis Lung carcinoma cells; settings: CTX 50 mg/kg injected on days 5, 7 and 9
Protocol: Lewis Lung carcinoma cells (2.5×10^6 cells) prepared from a brei carried in C57BL/6 mice were injected subcutaneously into the hind legs of mice. […] Cyclophosphamide (CTX) was injected to mice on days 5,7 and 9 after the implantation of the tumor at a dose of 50 mg/kg. Tumor volume was determined during the study. The % inhibition was calculated as above.

Compound: NS(=O)(=O)c1ccc(-n2nc(C(F)F)cc2-c2ccc(Cl)cc2)cc1 [COX-2 inhibitor, 4-[5-(4-chlorophenyl)-3-(difluoromethyl)-1H-pyrazol-1-yl]benzenesulfonamide]
- inhibition of growth of the tumor (LNCaP; day 58): 55%
- PSA level reduced to (LNCaP; judged by western blotting): approximately 50%
- PGE2 level reduction (PC-3 cells): 80-90%
- TXB2 level reduction (PC-3 cells): 80-90%

Compound: O=P1(N(CCCl)CCCl)NCCCO1 (centres unmarked) [CTX, Cyclophosphamide]
- Tumor Volume (Day 22) % Inhibition [1]: 57%
